Results on two molecules are retold here after patent US20030162782A1, “Treatment of neuropathy” (priority 1999, published 2003).

The test system of data set [1] is patients with diabetic polyneuropathy. As to the kind of experiment: Anecdotal reports in patients with diabetic polyneuropathy after single doses of sildenafil. Format: in vivo, human. As to conditions: single doses of 50 mg.
Data set [2] concerns men demonstrating positive symptoms of diabetic neuropathy. As to the kind of experiment: Clinical trial of sildenafil versus placebo (crossover) with pain assessments (PDI, VAS Pain Score, Verbal Evaluation of Pain Relief). Format: in vivo, human. To be noted: 50 mg every night for 10 days, pain assessed by PDI, VAS Pain Score and Verbal Evaluation of Pain Relief. The method, then: The study was conducted using sidenafil, however it will be appreciated that the study may be conducted with other cGMP PDE5 inhibitors, for example one or more of the preferred cGMP PDE5 inhibitors listed hereinabove.
The patients then underwent a 7-day treatment-free phase in order to establish baseline data, including a series of pain assessments comprising determining the Pain Disability Index (PDI) (adapted from Tait et al 1990), the Visual Analogue Scale (VAS) Pain Score, and the Verbal Evaluation of Pain Relief. They were then treated with either sildenafil (50 mg) or placebo every night for 10 days and immediately after this period the patient's degree of pain was reassessed. A washout period of 10 days followed where the patients received no treatment. […] Immediately after this period the patient's degree of pain was assessed.
Pain Disability Index (PDI) is determined by patient questionnaire, and measures the overall impact of pain (on a scale of 0 to 10) associated with normal daily activities, (i.e. family/home responsibilities, recreation, social activity, occupation, self-care, sleeping). […]
Visual Analogue Scale (VAS) Pain Score is determined by the patient indicating on a continuous line from 0 (=no pain) to 100 (=pain as bad as it could be) the average level of a pain experienced during the assessment period. […]

What is called melting point is the temperature, or range, at which the solid turns liquid. Consider `CCCOc1ncc(C(C)=O)cc1-c1nc2c(CC)n(C3CN(C(C)C)C3)nc2c(=O)[nH]1` [Example 4, 5-(5-Acetyl-2-propoxy-3-pyridinyl)-3-ethyl-2-(1-isopropyl-3-azetidinyl)-2,6-dihydro-7H-pyrazolo[4,3-d]pyrimidin-7-one], for which the melting point was 162.8 to 163.6 °C.

In the case of `CCCc1nn(C)c2c(=O)[nH]c(-c3cc(S(=O)(=O)N4CCN(C)CC4)ccc3OCC)nc12` [sildenafil, 5-[2-ethoxy-5-(4-methyl-1-piperazinylsulphonyl)phenyl]-1-methyl-3-n-propyl-1,6-dihydro-7H-pyrazolo[4,3-d]pyrimidin-7-one], the painful symptoms result in data set [1] was “improvement in painful symptoms”. Further, in data set [2], the “degree of pain experienced” value is “reduction in the degree of pain experienced in a number of patients”.
